pIC50: −log10 of the molar value.
Experiments:
PRMT5 [1] = target: T1, PRMT5 (Homo sapiens, UniProt O14744); assay: PRMT5 IC50 assay in the presence of SAM as cofactor; assay type: biochemical
T1 construct: purchased Viva (custom protein)
How it was run: (§1)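 Values reflect IC50 (μM) on human PRMT5 under three cofactor states. Selectivity is derived as the quotient of SAM-state Ki over MTA-state Ki, with each Ki obtained from its IC50.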

PRMT5 [2] = target: T1, PRMT5; assay: PRMT5 IC50 assay with no cofactor; assay type: biochemical
How it was run: as §1

PRMT5 [3] = target: T1, PRMT5; assay: PRMT5 IC50 assay in the presence of MTA as cofactor; assay type: biochemical; details: for pIC50: PRMT5, MTA as cofactor
How it was run: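 Each compound is tested on PRMT5 in the presence of SAM, of MTA, and without any cofactor. Ki values are then back-calculated using fixed factors of 1.5 (SAM) and 13.5 (MTA), and the two Ki values are compared as a ratio.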

HAP1 MTAP-intact = assay: SDMA in-cell western assay, HAP1 MTAP-intact cell line; assay type: cell-based; details: Homo sapiens
How it was run: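 Cells from two matched HAP1 lines, MTAP-null and MTAP-expressing at endogenous levels, are treated with compound. SDMA is then quantified by in-cell western and an IC50 is calculated for each line.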

HAP1 MTAP-deleted = assay: SDMA in-cell western assay, HAP1 MTAP-deleted cell line; assay type: cell-based; details: for pIC50: Homo sapiens, HAP1 MTAP-deleted cell line; for MTAP Intact/Deleted Ratio: IC50 ratio HAP1 MTAP-intact / HAP1 MTAP-deleted
How it was run: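 MTAP-null HAP1 cells, the deleted member of an isogenic pair with endogenously MTAP-expressing HAP1, are treated with compound. SDMA is then quantified by in-cell western and an IC50 is calculated.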

[4] = ratio between Ki in the presence of SAM and Ki in the presence of MTA
[5] = ratio between the Ki in the presence of SAM and the Ki in the presence of MTA

T1 sequence (O14744 whole entry): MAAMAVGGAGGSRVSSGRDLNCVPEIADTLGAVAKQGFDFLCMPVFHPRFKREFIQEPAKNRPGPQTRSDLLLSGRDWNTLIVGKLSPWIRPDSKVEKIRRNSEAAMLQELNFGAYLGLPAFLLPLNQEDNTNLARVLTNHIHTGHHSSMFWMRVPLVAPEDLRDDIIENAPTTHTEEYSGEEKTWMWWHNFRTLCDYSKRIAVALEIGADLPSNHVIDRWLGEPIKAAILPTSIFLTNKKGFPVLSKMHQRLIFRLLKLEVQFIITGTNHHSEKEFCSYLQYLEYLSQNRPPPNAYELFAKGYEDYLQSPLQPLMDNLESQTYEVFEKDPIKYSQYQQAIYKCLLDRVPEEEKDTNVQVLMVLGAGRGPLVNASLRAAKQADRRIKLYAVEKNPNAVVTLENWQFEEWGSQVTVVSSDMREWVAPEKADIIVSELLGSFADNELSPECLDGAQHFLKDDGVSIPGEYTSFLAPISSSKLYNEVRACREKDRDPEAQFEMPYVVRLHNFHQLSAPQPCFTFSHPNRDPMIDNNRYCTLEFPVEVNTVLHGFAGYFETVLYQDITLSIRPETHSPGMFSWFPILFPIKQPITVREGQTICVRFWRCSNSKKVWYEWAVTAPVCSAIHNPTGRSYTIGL
T1 sequence (Q9BQA1 whole entry partner): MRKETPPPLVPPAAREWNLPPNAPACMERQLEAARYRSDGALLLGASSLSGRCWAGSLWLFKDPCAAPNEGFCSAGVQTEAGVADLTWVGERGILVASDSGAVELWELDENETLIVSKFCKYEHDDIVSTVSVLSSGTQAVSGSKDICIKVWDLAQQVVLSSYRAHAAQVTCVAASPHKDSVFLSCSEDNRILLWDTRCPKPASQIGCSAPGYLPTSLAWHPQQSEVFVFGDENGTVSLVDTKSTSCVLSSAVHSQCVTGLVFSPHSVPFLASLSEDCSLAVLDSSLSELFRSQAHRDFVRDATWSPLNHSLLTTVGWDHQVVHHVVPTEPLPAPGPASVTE

Row | pIC50 (PRMT5 [1]) | pIC50 (PRMT5 [2]; read-out: No Co-factor IC50) | pIC50 (PRMT5 [3]) | pIC50 (HAP1 MTAP-intact) | pIC50 (HAP1 MTAP-deleted) | pIC50 (PRMT5 [2]) | Structure (SMILES) | SAM/MTA Ratio (PRMT5 [3]; [4]) | MTAP Intact/Deleted Ratio (HAP1 MTAP-deleted) | SAM/MTA Ratio (PRMT5 [3]; [5])
1 | 6.30 to 7.30 | 5.30 to 6.30 | 6.30 to 7.30 | ≤ 5.00 | 5.00 to 6.00 | – | CCC(=O)N1CCN(c2nc(NC3COC3)cc(C(=O)NC[C@H](O)CN3CCc4c(ccc(OCc5cnco5)c4Cl)C3)n2)CC1 [Compound 318, (S)—N-(3-(5-chloro-6-(oxazol-5-ylmethoxy)-3N-dihydroisoquinolin-2(1H)-yl)-2-hydroxypropyl)-6-(oxetan-3-ylamino)-2-(4-propionylpiperazin-1-yl)pyrimidine-4-carboxamide] | A (a Ki ratio greater than or equal to 10 fold between the Ki in the presence of SAM and the Ki in the presence of MTA) | C* (an IC50 ratio of less than 3 fold between the IC50 in the HAP1 MTAP-intact cell line and the HAP1 MTAP-deleted cell line) | –
2 | 5.30 to 6.30 | ≤ 5.30 | 5.30 to 6.30 | ≤ 5.00 | 5.00 to 6.00 | – | O=C(NC[C@H](O)CN1CCc2c(ccc(OCc3cnco3)c2Cl)C1)c1cc(NC2CCC2)nc(N2CCCCC2)c1 [Compound 305, (S)—N-(3-(5-chloro-6-(oxazol-5-ylmethoxy)-3N-dihydroisoquinolin-2(1H)-yl)-2-hydroxypropyl)-2-(cyclobutylamino)-6-(piperidin-1-yl)isonicotinamide] | A (a Ki ratio greater than or equal to 10 fold between the Ki in the presence of SAM and the Ki in the presence of MTA) | C* (an IC50 ratio of less than 3 fold between the IC50 in the HAP1 MTAP-intact cell line and the HAP1 MTAP-deleted cell line) | –
3 | 6.30 to 7.30 | – | 6.30 to 7.30 | ≤ 5.00 | 5.00 to 6.00 | ≤ 5.30 | CC(=O)N1CC(Nc2cc(C(=O)NC[C@H](O)CN3CCc4c(ccc(OCc5ocnc5C)c4C)C3)nc(N3CCOCC3)n2)C1 [Compound 574, 6-[(1-acetylazetidin-3-yl)amino]-N-[(2S)-2-hydroxy-3-{5-methyl-6-[(4-methyl-1,3-oxazol-5-yl)methoxy]-1,2,3,4-tetrahydroisoquinolin-2-yl}propyl]-2-(morpholin-4-yl)pyrimidine-4-carboxamide] | – | C* (an IC50 ratio of less than 3 fold between the IC50 in the HAP1 MTAP-intact cell line and the HAP1 MTAP-deleted cell line) | A (a Ki ratio greater than or equal to 10 fold between the Ki in the presence of SAM and the Ki in the presence of MTA)
4 | 5.30 to 6.30 | ≤ 5.30 | 6.30 to 7.30 | ≤ 5.00 | ≤ 5.00 | – | O=C(NC[C@H](O)CN1CCc2c(ccc(OCc3cnco3)c2Cl)C1)c1cc(NC2CCC2)ncc1F [Compound 340, (S)—N-(3-(5-chloro-6-(oxazol-5-ylmethoxy)-3N-dihydroisoquinolin-2(1H)-yl)-2-hydroxypropyl)-2-(cyclobutylamino)-5-fluoroisonicotinamide] | A (a Ki ratio greater than or equal to 10 fold between the Ki in the presence of SAM and the Ki in the presence of MTA) | C* (an IC50 ratio of less than 3 fold between the IC50 in the HAP1 MTAP-intact cell line and the HAP1 MTAP-deleted cell line) | –

The next lines start with the molecule.

Row | Structure (SMILES) | pIC50 (PRMT5 [1]) | pIC50 (PRMT5 [2]; read-out: No Co-factor IC50) | pIC50 (PRMT5 [3]) | pIC50 (HAP1 MTAP-intact) | pIC50 (HAP1 MTAP-deleted) | pIC50 (PRMT5 [2]) | SAM/MTA Ratio (PRMT5 [3]; [4]) | MTAP Intact/Deleted Ratio (HAP1 MTAP-deleted) | SAM/MTA Ratio (PRMT5 [3]; [5])
5 | Cc1c(OCc2cnco2)ccc2c1CCN(C[C@@H](O)CNC(=O)c1cccc(NC3CCC3)c1)C2 [Compound 351, 3-(cyclobutylamino)-N-[(2S)-2-hydroxy-3-{5-methyl-6-[(1,3-oxazol-5-yl)methoxy]-1,2,3,4-tetrahydroisoquinolin-2-yl}propyl]benzamide] | 5.30 to 6.30 | ≤ 5.30 | 6.30 to 7.30 | ≤ 5.00 | ≤ 5.00 | – | A (a Ki ratio greater than or equal to 10 fold between the Ki in the presence of SAM and the Ki in the presence of MTA) | C* (an IC50 ratio of less than 3 fold between the IC50 in the HAP1 MTAP-intact cell line and the HAP1 MTAP-deleted cell line) | –
6 | COCCN(C)c1cc(C(=O)NC[C@H](O)CN2CCc3cc(OCc4ocnc4C)ccc3C2)cc(NC2CCN(C(C)=O)CC2)n1 [Compound 582] | 6.30 to 7.30 | – | 6.30 to 7.30 | 5.00 to 6.00 | > 6.00 | 5.30 to 6.30 | – | A* (an IC50 ratio greater than or equal to 10 fold between the IC50 in the HAP1 MTAP-intact cell line and the HAP1 MTAP-deleted cell line) | A (a Ki ratio greater than or equal to 10 fold between the Ki in the presence of SAM and the Ki in the presence of MTA)
7 | CC(=O)N1CCC(Nc2cc(C(=O)NC[C@H](O)CN3CCc4cc(OCc5ocnc5C)c(F)cc4C3)ncn2)CC1 [Compound 576, 6-[(1-acetyl-4-piperidyl)amino]-N-[(2S)-3-[7-fluoro-6-[(4-methyloxazol-5-yl)methoxy]-3N-dihydro-1H-isoquinolin-2-yl]-2-hydroxy-propyl]pyrimidine-4-carboxamide] | 6.30 to 7.30 | – | 6.30 to 7.30 | 5.00 to 6.00 | 5.00 to 6.00 | 5.30 to 6.30 | – | B* (an IC50 ratio greater than or equal to 3 fold but lower than 10 fold between the IC50 in the HAP1 MTAP-intact cell line and the HAP1 MTAP-deleted cell line) | A (a Ki ratio greater than or equal to 10 fold between the Ki in the presence of SAM and the Ki in the presence of MTA)
8 | CC(=O)N1CCC(Nc2cc(C(=O)NC[C@H](O)CN3CCc4cc(OCc5ocnc5C)ccc4C3)cc(N(C)C)n2)CC1 [Compound 629, (S)-2-((1-acetylpiperidin-4-yl)amino)-6-(dimethylamino)-N-(2-hydroxy-3-(6-((4-methyloxazol-5-yl)methoxy)-3,4-dihydroisoquinolin-2(1H)-yl)propyl)isonicotinamide] | 6.30 to 7.30 | 5.30 to 6.30 | 6.30 to 7.30 | 5.00 to 6.00 | > 6.00 | – | A (a Ki ratio greater than or equal to 10 fold between the Ki in the presence of SAM and the Ki in the presence of MTA) | A* (an IC50 ratio greater than or equal to 10 fold between the IC50 in the HAP1 MTAP-intact cell line and the HAP1 MTAP-deleted cell line) | –
9 | Cc1ncoc1COc1ccc2c(c1)CCN(C[C@@H](O)CNC(=O)c1cc(NC3CC4(CCC4)C3)nc(N3CCN(C(=O)C4CC4)CC3)c1)C2 [Compound 610, (S)-2-(4-(cyclopropanecarbonyl)piperazin-1-yl)-N-(2-hydroxy-3-(6-((4-methyloxazol-5-yl)methoxy)-3,4-dihydroisoquinolin-2(1H)-yl)propyl)-6-(spiro[3.3]heptan-2-ylamino)isonicotinamide] | 6.30 to 7.30 | – | > 7.30 | 5.00 to 6.00 | 5.00 to 6.00 | 6.30 to 7.30 | – | C* (an IC50 ratio of less than 3 fold between the IC50 in the HAP1 MTAP-intact cell line and the HAP1 MTAP-deleted cell line) | A (a Ki ratio greater than or equal to 10 fold between the Ki in the presence of SAM and the Ki in the presence of MTA)
10 | CC(=O)N1CCC(Nc2cc(C(=O)NC[C@H](O)CN3CCc4cc(OCc5cnco5)ccc4C3)ccn2)CC1 [Compound 471, 2-[(1-acetyl-4-piperidyl)amino]-N-[(2S)-2-hydroxy-3-[6-(oxazol-5-ylmethoxy)-3,4-dihydro-1H-isoquinolin-2-yl]propyl]pyridine-4-carboxamide] | 6.30 to 7.30 | – | 6.30 to 7.30 | 5.00 to 6.00 | 5.00 to 6.00 | 5.30 to 6.30 | – | B* (an IC50 ratio greater than or equal to 3 fold but lower than 10 fold between the IC50 in the HAP1 MTAP-intact cell line and the HAP1 MTAP-deleted cell line) | A (a Ki ratio greater than or equal to 10 fold between the Ki in the presence of SAM and the Ki in the presence of MTA)
11 | CC(=O)N1CCC(Nc2cc(C(=O)NC[C@H](O)CN3CCc4cc(OCc5ocnc5C)c(F)cc4C3)cc(N3CCCCC3)n2)CC1 [Compound 623] | 6.30 to 7.30 | – | 6.30 to 7.30 | 5.00 to 6.00 | > 6.00 | 6.30 to 7.30 | – | A* (an IC50 ratio greater than or equal to 10 fold between the IC50 in the HAP1 MTAP-intact cell line and the HAP1 MTAP-deleted cell line) | A (a Ki ratio greater than or equal to 10 fold between the Ki in the presence of SAM and the Ki in the presence of MTA)
12 | O=C(NC[C@H](O)CN1CCc2cc(OCc3cnco3)ccc2C1)c1cc(NC2CCC2)ncc1Cl [Compound 284, 5-chloro-2-(cyclobutylamino)-N-[(2S)-2-hydroxy-3-[6-(oxazol-5-ylmethoxy)-3N-dihydro-1H-isoquinolin-2-yl]propyl]pyridine-4-carboxamide] | 5.30 to 6.30 | ≤ 5.30 | 6.30 to 7.30 | > 6.00 | > 6.00 | – | A (a Ki ratio greater than or equal to 10 fold between the Ki in the presence of SAM and the Ki in the presence of MTA) | C* (an IC50 ratio of less than 3 fold between the IC50 in the HAP1 MTAP-intact cell line and the HAP1 MTAP-deleted cell line) | –

— patent US11986471B2, “Compounds and methods of use” (Tango Therapeutics, Inc., priority 2018, dated 2024)
